# US7943156B2, “Use of peptides of general formula I X-SEQ ID No.1-Y in the preparation of cosmetic compositions which are intended to improve the firmness of the skin by increasing cell adhesion” (Lipotec, S.A., priority 2004, dated 2011)
# “Also recorded” adds a separate entry of the source. No end group written: not given here. *: point of attachment. Palmitoyl = CCCCCCCCCCCCCCCC(=O)*
# Tests used:
# [1] = tested on: human epidermal keratinocytes (HEKa); assay: In vitro cell adhesion of keratinocytes to peptide-coated microwells (calcein fluorescence); format: cell-based; settings: for cell adhesion of keratinocytes: HEKa, peptide-coated microwells 0.5-250 μg/ml, 4 concentrations, 2 hours
# Protocol: 1-Y and the comparative evaluation between them.
# The cell cultures used in the following example are human epidermal keratinocytes (HEKa) in the presence of specific growth factors of keratinocytes.
# First, 96 microwells are placed in a plate, they are coated with 50 μL of a peptide of general formula X-SEQ ID NO.1-Y (0.5-250 μg/ml per microwell) in distilled water and dried overnight at room temperature.
# On the other hand, control assays are carried out with microwells coated with 40 μM of BSA (bovine serum albumin) so as to evaluate non-specific cell adhesion.
# All the microwells have been washed with 200 μL of PBS (phosphate buffered saline) and blocked for 1 hour with 1% BSA in PBS at 37° C.
# Trypsin was added to human cutaneous keratinocytes, and they were marked for 30 minutes at 37° C. in calcein-AM at a concentration of 5 μM and they were finally washed three times in Epilife® medium.
# The marked cells (4.5×10^4/microwell) were added to the plate previously coated with the X-SEQ ID No. 1-Y peptide and were incubated for 2 hours at 37° C. in an atmosphere humidified with 5% CO2.
# The cell adhesion was assessed by the measurement of calcein fluorescence before and after the washing.
# The percentage of cell adhesion was determined by dividing the fluorescence of adhered cells by the total fluorescence of cells added to each microwell.
# The cell adhesion promoted by the X-SEQ ID No. 1-Y peptides was calculated with respect to the non-specific adhesion of the cells to BSA.
# human fibroblasts = assay: Cell adhesion in in vitro fibroblast culture; format: cell-based; settings: vs untreated
# From the text: The adhesion process at a cellular level has been determined by means of a in vitro fibroblast culture in the second embodiment assay.
# FIGS. 6 and 7 show a uniform coating of the assay microwell and the growth and distribution of the fibroblasts that are more related with cell adhesion than with cell proliferation.
# laminin V = assay: Immunostaining of laminin V expression in human fibroblasts and keratinocytes; format: cell-based; settings: human fibroblasts, immunofluorescence, vs control without peptide
# From the text: (§1) Immunostaining assays have been carried out in human fibroblasts and keratinocytes in order to determine if SEQ ID No. 2 has the ability to enhance the expression of α6 integrin and laminin V (FIGS. 2, 3, 4, and 5).
# (§2) The assay uses a primary (monoclonal) antibody binding to the protein which is intended to be detected (integrin or laminin), and a secondary (polyclonal) antibody binding to the complex between the protein and the primary antibody. The secondary antibody is coupled to a fluorescent compound (FITC-Fluorescein Isothiocyanate).
# (§3) FITC is illuminated with filtered light at 495 nm (absorption wavelength) and the light emitted by the dye is detected at 528 nm (emission wavelength).
# α6 integrin = assay: Immunostaining of α6 integrin expression in human fibroblasts and keratinocytes; format: cell-based
# From the text: as §1, §2, §3
# beta 1 integrin = assay: Immunostaining, production of beta 1 integrin; format: cell-based, human
substance,measurement,setting,value
Pal-SEQ ID No. 1: X-SEQ ID No. 1-Y peptide where X is the palmitoyl radical (Palmitoyl-IKVAV; listed as Homo sapiens),cell adhesion of keratinocytes,[1],Stimulation of keratinocyte adhesion
same,cell adhesion of keratinocytes,[1]; listed as Pal-SEQ ID NO.1,increase of cell adhesion
SEQ ID No. 2-amino: variant of SEQ ID No. 2 with Y amino (SEQ ID NO. 2-NH2) (SIKVAV-NH2; listed as Homo sapiens),cell adhesion of keratinocytes,[1],increase of cell adhesion
same,"keratinocyte cell adhesion, SEQ ID No. 2 vs SEQ ID No. 2-amino (FIG. 10)",[1]; small doses (0.5 μg/ml),greater
SEQ ID No. 2: peptide of general formula I in which X is serine and Y is hydroxyl; laminin-derived (SIKVAV-OH; listed as Homo sapiens),cell adhesion in human fibroblasts,human fibroblasts,promoting cell adhesion and migration
same,expression of laminin V,laminin V,increase of the expression; also recorded: significant increase
same,expression of laminin V,laminin V; listed as SEQ ID NO.2,stimulation of the expression
same,cell adhesion of keratinocytes,[1],Stimulation of keratinocyte adhesion
same,cell adhesion of keratinocytes,[1]; listed as SEQ ID NO. 2,increase of cell adhesion
same,cell adhesion of keratinocytes,[1]; listed as SEQ ID NO.2,increase of cell adhesion
same,"keratinocyte cell adhesion, comparison between peptides (FIG. 9)","[1]; extrapolated results of FIG. 9, SEQ ID No. 2 vs SEQ ID No. 1 vs Pal-SEQ ID No. 1",greater adhesion
same,"keratinocyte cell adhesion, SEQ ID No. 2 vs SEQ ID No. 2-amino (FIG. 10)",[1]; larger doses,greater adhesion
same,expression of α6 integrin,"α6 integrin; human fibroblasts, immunofluorescence, vs control without peptide",increase of the expression; also recorded: significant increase
same,expression of α6 integrin,"α6 integrin; human fibroblasts, immunofluorescence, vs control without peptide, listed as SEQ ID NO.2",stimulation of the expression
same,expression of α6 integrin,"α6 integrin; keratinocytes, immunostaining",not in keratinocytes
same,production of beta 1 integrin,beta 1 integrin,No variation
SEQ ID No. 1: peptide of general formula I in which X is hydrogen and Y is hydroxyl (H-IKVAV-OH; listed as Homo sapiens),cell adhesion of keratinocytes,[1],Stimulation of keratinocyte adhesion
same,cell adhesion of keratinocytes,[1]; listed as SEQ ID NO. 1,increase of cell adhesion
